Measured values from patent publication US8987248B2, “Substituted piperidines as Par-1 antagonists” (Bayer Intellectual Property GmbH, priority 2009, dated 2015).
Where a name gives a salt, the structure may show the parent alone.

Molecular target: human protease activated receptor 1 (PAR-1) (Homo sapiens (Human), UniProt P25116)
Test: Cellular, functional in vitro test (aequorin luminescence, calcium release in recombinant HEK293 PAR-1 test cell)
Format: cell-based
Details: HEK293-derived PAR-1 test cell line expressing aequorin; PAR-1 agonist added at its EC50, 5 min after test substance
From the text: 1.a) Cellular, Functional In Vitro Test
A recombinant cell line is used to identify […] of the human protease activated receptor 1 (PAR-1) and to quantify the activity of the substances described herein. The cell is originally derived from a human embryonal kidney cell (HEK293; ATCC: American Type Culture Collection, Manassas, Va. 20108, USA). The test cell line constitutively expresses a modified form of the calcium-sensitive photoprotein aequorin which, after reconstitution with the cofactor coelenterazine, emits light when the free calcium concentration in the inner mitochondrial compartment is increased (Rizzuto R, Simpson A W, Brini M, Pozzan T.; Nature 1992, 358, 325-327). Additionally, the cell stably expresses the endogenous human PAR-1 receptor and the endogenous purinergic receptor P2Y2. The resulting PAR-1 test cell responds to stimulation of the endogenous PAR-1 or P2Y2 receptor with an intracellular release of calcium ions, which can be quantified through resulting aequorin luminescence with a suitable luminometer (Milligan G, Marshall F, Rees S, Trends in Pharmacological Sciences 1996, 17, 235-237).
For the testing of the substance specificity, the effect thereof after activation of the endogenous PAR-1 receptor is compared with the effect after activation of the endogenous purinergic P2Y2 receptor which utilizes the same intracellular signal path.
Two days (48 hours) before the assay, the cells are plated out in culture medium (DMEM F12, supplemented with 10% FCS, 2 mM glutamine, 10 mM HEPES, 1.4 mM pyruvate, 0.1 mg/ml gentamycin, 0.15% Na bicarbonate; BioWhittaker Cat. #BE04-687Q; B-4800 Verviers, Belgium) in 384-well microtitre plates and kept in a cell incubator (96% humidity, 5% v/v CO2, 37° C.). On the day of the test, the culture medium is replaced by a tyrode solution (in mM: 140 sodium chloride, 5 potassium chloride, 1 magnesium chloride, 2 calcium chloride, 20 glucose, 20 HEPES), which additionally contains the cofactor coelenterazine (25 μM) and glutathione (4 mM), and the microtitre plate is then incubated for a further 3-4 hours. The test substances are then pipetted onto the microtitre plate, and 5 minutes after the transfer of the test substances into the wells of the microtitre plate the plate is transferred into the luminometer, a PAR-1 agonist concentration which corresponds to the EC50 is added and the resulting light signal is immediately measured in the luminometer. To distinguish an antagonist substance action from a toxic action, the endogenous purinergic receptor is immediately subsequently activated with agonist (ATP, final concentration 10 μM) and the resulting light signal is measured.

human protease activated receptor 1 (PAR-1), sequence (P25116 22-425): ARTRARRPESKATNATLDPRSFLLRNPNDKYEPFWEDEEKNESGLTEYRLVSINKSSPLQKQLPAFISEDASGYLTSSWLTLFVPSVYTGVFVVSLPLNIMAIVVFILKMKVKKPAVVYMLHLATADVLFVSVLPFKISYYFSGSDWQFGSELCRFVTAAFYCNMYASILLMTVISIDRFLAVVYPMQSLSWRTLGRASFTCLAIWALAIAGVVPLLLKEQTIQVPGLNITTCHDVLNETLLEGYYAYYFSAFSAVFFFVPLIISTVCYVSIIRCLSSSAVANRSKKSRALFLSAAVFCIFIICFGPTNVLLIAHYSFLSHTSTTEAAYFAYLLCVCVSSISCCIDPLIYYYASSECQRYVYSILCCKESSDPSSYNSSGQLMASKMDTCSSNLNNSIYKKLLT

Compound | IC50 [µM]
N#CC1CCN(C(=O)N2CC(NC(=O)C3CCCC3)CC(c3ccc(C(F)(F)F)cc3)C2)CC1 (single isomer, unassigned) [Example 178, N-{1-[(4-Cyanopiperidin-1-yl)carbonyl]-5-[4-(trifluoromethyl)phenyl]piperidin-3-yl}cyclopentanecarboxamide] | 0.063
O=C(NC1CC(c2ccc(C(F)(F)F)cc2)CN(C(=O)N2CCC(O)CC2)C1)c1ccccc1 (racemic) [Example 129, N-{1-[(4-Hydroxypiperidin-1-yl)carbonyl]-5-[4-(trifluoromethyl)phenyl]piperidin-3-yl}benzenecarboxamide] | 0.0336
C[C@@H]1CC[C@@H](C)N1C(=O)N1CC(NC(=O)c2ccccc2)CC(c2ccc(C(F)(F)F)cc2)C1 (mixture of isomers) [Example 133, N-(1-{[(2R,5R)-2,5-Dimethylpyrrolidin-1-yl]carbonyl}-5-[4-(trifluoromethyl)phenyl]piperidin-3-yl)benzenecarboxamide] | 0.0146
CCc1ccc(C2CC(NC(=O)Nc3ccccc3)CN(C(=O)N3CCCC3)C2)cc1 (racemic) [Example 91, N-[5-(4-Ethylphenyl)-1-(pyrrolidin-1-ylcarbonyl)piperidin-3-yl]-3-phenylurea] | 0.0174
CCc1ccc(C2CC(C(=O)Nc3ccccc3)CN(C(=O)C(C)(C)CF)C2)cc1 (racemic) [Example 7, 5-(4-Ethylphenyl)-1-(3-fluoro-2,2-dimethylpropanoyl)-N-phenylpiperidine-3-carboxamide] | 0.029
CCc1ccc(C2CC(NC(=O)c3ccc(-c4cccc(C(F)(F)F)c4)cn3)CN(C(=O)C3CCCC3)C2)cc1 (racemic) [Example 83, N-[1-(Cyclopentylcarbonyl)-5-(4-ethylphenyl)piperidin-3-yl]-5-[3-(trifluoromethyl)phenyl]pyridine-2-carboxamide] | 0.0197
CCc1ccc(C2CC(NS(=O)(=O)Cc3ccccc3)CN(C(=O)C3CCCC3)C2)cc1 (racemic) [Example 104, N-[1-(Cyclopentylcarbonyl)-5-(4-ethylphenyl)piperidin-3-yl]-1-phenylmethanesulphonamide] | 0.248
CCc1ccc(C2CC(NC(=O)OC)CN(C(=O)N3CCOCC3)C2)cc1 (racemic) [Example 102, Methyl [5-(4-ethylphenyl)-1-(morpholin-4-ylcarbonyl)piperidin-3-yl]carbamate] | 0.165
Cc1ccc(C2CC(NC(=O)c3ccccc3)CN(C(=O)C3(N)CCC3)C2)cc1C (racemic) [Example 119, N-{1-[(1-Aminocyclobutyl)carbonyl]-5-(3,4-dimethylphenyl)piperidin-3-yl}benzenecarboxamide hydrochloride] | 0.0157
O=C(NC1CC(c2ccc(C(F)(F)F)cc2)CN(C(=O)N2CCC(O)CC2)C1)C1CCCC1 (racemic) [Example 170, N-{1-[(4-Hydroxypiperidin-1-yl)carbonyl]-5-[4-(trifluoromethyl)phenyl]piperidin-3-yl}cyclopentanecarboxamide] | 0.0213
CCc1ccc(C2CC(C(=O)Nc3ccccc3)CN(C(=O)CCOC)C2)cc1 (racemic) [Example 8, 5-(4-Ethylphenyl)-1-(3-methoxypropanoyl)-N-phenylpiperidine-3-carboxamide] | 0.109
O=C(NC1CC(c2ccc(C(F)(F)F)cc2)CN(C(=O)N2CCC(O)CC2)C1)C1CCCC1 (single isomer, unassigned) [Example 177, N-{1-[(4-Hydroxypiperidin-1-yl)carbonyl]-5-[4-(trifluoromethyl)phenyl]piperidin-3-yl}cyclopentanecarboxamide] | 0.081
O=C(NC1CC(c2ccc(C(F)(F)F)cc2)CN(C(=O)N2CCS(=O)(=O)CC2)C1)c1ccccc1 (racemic) [Example 134, N-{1-[(1,1-Dioxidothiomorpholin-4-yl)carbonyl]-5-[4-(trifluoromethyl)phenyl]piperidin-3-yl}-benzenecarboxamide] | 0.0154
CCc1ccc(C2CC(C(=O)Nc3ccccc3)CN(C(=O)C3(CC)COC3)C2)cc1 (racemic) [Example 18] | 0.483

The remaining molecules from weak to strong by IC50, led by results:

IC50 [µM] | Compound
0.359 | CCc1ccc(C2CC(NC(=O)C(C)(C)C)CN(C(=O)C3CCCC3)C2)cc1 (racemic) [Example 90, N-[1-(Cyclopentylcarbonyl)-5-(4-ethylphenyl)piperidin-3-yl]-2,2-dimethylpropanamide]
0.237 | CCc1ccc(C2CC(NC(=O)N(C)c3ccccc3)CN(C(=O)C3CCCC3)C2)cc1 (racemic) [Example 95, 3-[1-(Cyclopentylcarbonyl)-5-(4-ethylphenyl)piperidin-3-yl]-1-methyl-1-phenylurea]
0.0982 | CCc1ccc(C2CC(C(=O)Nc3ccccc3)CN(C(=O)c3scnc3C)C2)cc1 (racemic) [Example 36]
0.0537 | O=C1CN(C(=O)N2CC(NC(=O)c3ccccc3)CC(c3ccc(C(F)(F)F)cc3)C2)CCN1 (racemic) [Example 141, N-{1-[(3-Oxopiperazin-1-yl)carbonyl]-5-[4-(trifluoromethyl)phenyl]piperidin-3-yl}benzenecarboxamide]
0.025 | Cc1cccc(C(=O)NC2CC(c3ccc(C(F)(F)F)cc3)CN(C(=O)N3CCOCC3)C2)n1 (racemic) [Example 162]
0.017 | O=C(NC1CC(c2ccc(C(F)(F)F)cc2)CN(C(=O)N2CCOCC2)C1)c1ccccc1 (single isomer, unassigned) [Example 128, N-{1-(Morpholin-4-ylcarbonyl)-5-[4-(trifluoromethyl)phenyl]piperidin-3-yl}benzenecarboxamide]
0.0111 | O=C(NC1CC(c2ccc(OC(F)(F)F)cc2)CN(C(=O)c2ccncc2)C1)c1ccccc1 (single isomer, unassigned) [Example 115, N-{1-(Pyridin-4-ylcarbonyl)-5-[4-(trifluoromethoxy)phenyl]piperidin-3-yl}benzenecarboxamide]
